Consider 22 compounds from patent publication US10087178B2, “Substituted spiropyrido[1,2-a]pyrazine derivative and medicinal use thereof as HIV integrase inhibitor” (priority 2012, dated 2018).

Structures can show the parent of a compound that is named as a salt. Where two headings read alike, the source gives them in different places.

This test relates to HIV-1 NL4-3 strain. Nature of the test: Evaluation of antiviral activity: acute infection system of MT-4 cell with HIV-1 NL4-3 strain. It is filed as cell-based.
Setting [1] is: Human immunodeficiency virus 1, NL43, MT4, 120 h, MT-4 cells infected with HIV-1 NL4-3 strain (MOI 0.05), cultured 5 days, Cell Titer-Glo, read-out: antiviral activity (EC50).
The mark [2] stands for this setting: Human immunodeficiency virus 1, NL43, MT4, 120 h, antiviral activity, MT-4 cells infected with HIV-1 NL4-3 (MOI 0.05), 5 days culture, Cell Titer-Glo luminescence.
The mark [3] stands for this setting: Human immunodeficiency virus 1, NL43, MT4, 120 h, read-out: antiviral activity (EC50), MT-4 cells infected with HIV-1 NL4-3 strain (MOI 0.05), cultured 5 days, Cell Titer-Glo.
[4] abbreviates: Human immunodeficiency virus 1, NL43, MT4, 120 h, antiviral activity, MT-4 cells infected with HIV-1 NL4-3 (MOI 0.05), 5 days culture, Cell Titer-Glo luminescence, read-out: EC50.

Turning to `CCOC[C@H]1C[C@]2(CN(CC)C(=O)c3c(O)c(=O)c(C(=O)NCc4cccc(Cl)c4F)cn32)C1` [Example S48, N-(3-chloro-2-fluorobenzyl)- cis-3-(ethoxymethyl)-2′-ethyl-9′-hydroxy-1′,8′-dioxo-1′,2′,3′,8′-tetrahydrospiro[cyclobutane-1,4′-pyrido[1,2-a]pyrazine]-7′-carboxamide hydrochloride], under setting [1], the EC50 is 4.3 nM.

`CC(C)N1C[C@@]2(C[C@H]2CO)n2cc(C(=O)NCc3ccc(F)cc3F)c(=O)c(O)c2C1=O` [Example 15, (1S,2R)—N-(2,4-difluorobenzyl)-9′-hydroxy-2-(hydroxymethyl)-2′-isopropyl-1′,8′-dioxo-1′,2′,3′,8′-tetrahydrospiro[cyclopropane-1,4′-pyrido[1,2-a]pyrazine]-7′-carboxamide hydrochloride] displayed an EC50 under setting [2] of 7.2 nM.

On to `COC[C@H]1C[C@]2(CN(C)C(=O)c3c(OC(=O)c4ccc(C)cc4)c(=O)c(C(=O)NCc4cccc(Cl)c4F)cn32)C1` [Example S72, 7′-(3-chloro-2-fluorobenzylcarbamoyl)-cis-3-(methoxymethyl)-2′-methyl-1′,8′-dioxo-1′,2′,3′,8′-tetrahydrospiro[cyclobutane-1,4′-pyrido[1,2-a]pyrazin]-9′-yl 4-methylbenzoate], for which the EC50 under setting [1] was 0.9 nM.

In the case of “N-(3-chloro-2-fluorobenzyl)- 9′-hydroxy-cis-3-methoxy-2′- methyl-1′,8′-dioxo- 1′,2′,4′,8′- tetrahydrospiro[cyclobutane- 1,3′-pyrido[1,2-a]pyrazine]- 7′-carboxamide hydrochloride [Example S63]”, the EC50 (MT-4 cells infected with HIV-1 NL4-3 strain (MOI 0.05), cultured 5 days, Cell Titer-Glo, read-out: antiviral activity (EC50)) worked out at 4 nM.

`CC(C)N1C[C@]2(C[C@H]2CO)n2cc(C(=O)NCc3cccc(Cl)c3F)c(=O)c(O)c2C1=O` [Example T5, (1R,2R)-N-(3-chloro-2-fluorobenzyl)-9′-hydroxy-2-(hydroxymethyl)-2′-isopropyl-1′,8′-dioxo-1′,2′,3′,8′-tetrahydrospiro[cyclopropane-1,4′-pyrido[1,2-a]pyrazine]-7′-carboxamide hydrochloride]: the EC50 under setting [3] stood at 4 nM.

For the compound `CCN1C(=O)c2c(O)c(=O)c(C(=O)NCc3ccc(F)cc3F)cn2C[C@@]12C[C@@H]2CO` [Example T39, (1S,2S)-N-(2,4-difluorobenzyl)-2′-ethyl-9′-hydroxy-2-(hydroxymethyl)-1′,8′-dioxo-1′,2′,4′,8′-tetrahydrospiro[cyclopropane-1,3′-pyrido[1,2-a]pyrazine]-7′-carboxamide hydrochloride], the EC50 under setting [3] stood at 2.8 nM.

Turning to `CC(C)O[C@H]1C[C@]2(CN(C(C)C)C(=O)c3c(O)c(=O)c(C(=O)NCc4ccc(F)cc4F)cn32)C1` [Example S33, N-(2,4-difluorobenzyl)-9′-hydroxy-cis-3-isopropoxy-2′-isopropyl-1′,8′-dioxo-1′,2′,3′,8′-tetrahydrospiro[cyclobutane-1,4′-pyrido[1,2-a]pyrazine]-7′-carboxamide hydrochloride], the EC50 under setting [1] is 6.4 nM.

For `CC(C)N1C[C@@]2(C[C@@H]2C(=O)N(C)C)n2cc(C(=O)NCc3cccc(Cl)c3F)c(=O)c(O)c2C1=O` [Example T13, (1S,2S)-N^7′-(3-chloro-2-fluorobenzyl)-9′-hydroxy-2′-isopropyl-N^2,N^2-dimethyl-1′,8′-dioxo-1′,2′,3′,8′-tetrahydrospiro[cyclopropane-1,4′-pyrido[1,2-a]pyrazine]-2,7′-dicarboxamide hydrochloride], the EC50 under setting [3] came to 3.4 nM.

On to `COC[C@H]1C[C@]2(CN(C(C)C)C(=O)c3c(O)c(=O)c(C(=O)NCc4ccc(F)cc4F)cn32)C1` [Example S23, N-(2,4-difluorobenzyl)-9′-hydroxy-2′-isopropyl-cis-3-(methoxymethyl)-1′,8′-dioxo-1′,2′,3′,8′-tetrahydrospiro[cyclobutane-1,4′-pyrido[1,2-a]pyrazine]-7′-carboxamide hydrochloride], for which the EC50 under setting [1] amounted to 6.3 nM.

For `CN(C)C(=O)[C@H]1C[C@@]12CN(C1CC1)C(=O)c1c(O)c(=O)c(C(=O)NCc3cccc(Cl)c3F)cn12` [Example T32, (1S,2S)-N^7′-(3-chloro-2-fluorobenzyl)-2′-cyclopropyl-9′-hydroxy-N^2,N^2-dimethyl-1′,8′-dioxo-1′,2′,3′,8′-tetrahydrospiro[cyclopropane-1,4′-pyrido[1,2-a]pyrazine]-2,7′-dicarboxamide], the EC50 under setting [1] came to 3.3 nM.

For `COC[C@H]1C[C@]2(CN(C)C(=O)c3c(OC(=O)CN(C)C)c(=O)c(C(=O)NCc4cccc(Cl)c4F)cn32)C1` [Example S73, 7′-(3-chloro-2-fluorobenzylcarbamoyl)-cis-3-(methoxymethyl)-2′-methyl-1′,8′-dioxo-1′,2′,3′,8′-tetrahydrospiro[cyclobutane-1,4′-pyrido[1,2-a]pyrazin]-9′-yl 2-(dimethylamino)acetate dihydrochloride], the EC50 under setting [1] was determined as 1.1 nM.

`CCOC[C@H]1C[C@@]12Cn1cc(C(=O)NCc3cccc(Cl)c3F)c(=O)c(O)c1C(=O)N2CC` [Example T45, (1S,2S)-N-(3-chloro-2-fluorobenzyl)-2-(ethoxymethyl)-2′-ethyl-9′-hydroxy-1′,8′-dioxo-1′,2′,4′,8′-tetrahydrospiro[cyclopropane-1,3′-pyrido[1,2-a]pyrazine]-7′-carboxamide]: under setting [1], the EC50 worked out at 4.4 nM.

In turn, `CC(C)N1C[C@]2(C[C@@H]2CO)n2cc(C(=O)NCc3ccc(F)cc3F)c(=O)c(O)c2C1=O` [Example 13, (1R,2S)—N-(2,4-difluorobenzyl)-9′-hydroxy-2-(hydroxymethyl)-2′-isopropyl-1′,8′-dioxo-1′,2′,3′,8′-tetrahydrospiro[cyclopropane-1,4′-pyrido[1,2-a]pyrazine]-7′-carboxamide hydrochloride] returned an EC50 under setting [2] of 5.4 nM.

As to `CCOc1ccc(CNC(=O)c2cn3c(c(O)c2=O)C(=O)N(C)C[C@]32C[C@H]2COC)c(F)c1Cl` [Example T38, (1R,2R)-N-(3-chloro-4-ethoxy-2-fluorobenzyl)-9′-hydroxy-2-(methoxymethyl)-2′-methyl-1′,8′-dioxo-1′,2′,3′,8′-tetrahydrospiro[cyclopropane-1,4′-pyrido[1,2-a]pyrazine]-7′-carboxamide hydrochloride], under setting [3], the EC50 is 77 nM.

In the case of `CC(C)N1C[C@]2(C[C@H]2C(=O)N(C)C)n2cc(C(=O)NCc3cccc(Cl)c3F)c(=O)c(O)c2C1=O` [Example T14, (1R,2R)-N^7′-(3-chloro-2-fluorobenzyl)-9′-hydroxy-2′-isopropyl-N^2,N^2-dimethyl-1′,8′-dioxo-1′,2′,3′,8′-tetrahydrospiro[cyclopropane-1,4′ -pyrido[1,2-a]pyrazine]-2,7′-dicarboxamide hydrochloride], the EC50 under setting [3] was 4.8 nM.

Turning to `COC[C@H]1C[C@@]12CN(C)C(=O)c1c(O)c(=O)c(C(=O)NCc3cccc(Cl)c3F)cn12` [Example T16, (1S.2S)-N-(3-chloro-2-fluorobenzyl)-9′-hydroxy-2-(methoxymethyl)-2′-methyl-1′,8′-dioxo-1′,2′,3′,8′-tetrahydrospiro[cyclopropane-1,4′-pyrido[1,2-a]pyrazine]-7′-carboxamide hydrochloride], the EC50 under setting [1] came to 4.2 nM.

Turning to `CCN1C[C@]2(C[C@H](OC)C2)n2cc(C(=O)NCc3ccc(F)cc3F)c(=O)c(O)c2C1=O` [Example S20, N-(2,4-difluorobenzyl)-2′-ethyl-9′-hydroxy-cis-3-methoxy-1′,8′-dioxo-1′,2′,3′,8′-tetrahydrospiro[cyclobutane-1,4′-pyrido[1,2-a]pyrazine]-7′-carboxamide hydrochloride], the EC50 under setting [4] was 3.5 nM.

In the case of `CC(C)O[C@H]1C[C@]2(CN(C)C(=O)c3c(O)c(=O)c(C(=O)NCc4cccc(Cl)c4F)cn32)C1` [Example S41, N-(3-chloro-2-fluorobenzyl)-9′-hydroxy-cis-3-isopropoxy-2′-methyl-1′,8′-dioxo-1′,2′,3′,8′-tetrahydrospiro[cyclobutane-1,4′-pyrido[1,2-a]pyrazine]-7′-carboxamide hydrochloride], the EC50 under setting [1] was 3.5 nM.

`CN1C[C@]2(C[C@H](C(=O)O)C2)n2cc(C(=O)NCc3cccc(Cl)c3F)c(=O)c(O)c2C1=O` [Example 22, 7′-(3-chloro-2-fluorobenzylcarbamoyl)-9′-hydroxy-2′-methyl-1′,8′-dioxo-1′,2′,3′,8′-tetrahydrospiro[cyclobutane-1,4′-pyrido[1,2-a]pyrazine]-cis-3-carboxylic acid hydrochloride]: the EC50 (Human immunodeficiency virus 1, NL43, MT4, 120 h, read-out: antiviral activity (EC50)) is 400 nM.

`CCN1C(=O)c2c(O)c(=O)c(C(=O)NCc3cccc(Cl)c3F)cn2C[C@]12C[C@H](COC)C2` [Example S61, N-(3-chloro-2-fluorobenzyl)-2′-ethyl-9′-hydroxy-cis-3-(methoxymethyl)-1′,8′-dioxo-1′,2′,4′,8′-tetrahydrospiro[cyclobutane-1,3′-pyrido[1,2-a]pyrazine]-7′-carboxamide hydrochloride]: under setting [1], the EC50 stood at 5.1 nM.

As to `COC[C@H]1C[C@@]12Cn1cc(C(=O)NCc3ccc(F)cc3F)c(=O)c(O)c1C(=O)N2C(C)C` [Example T41, (1S,2S)-N-(2,4-difluorobenzyl)-9′-hydroxy-2′-isopropyl-2-(methoxymethyl)-1′,8′-dioxo-1′,2′,4′,8′-tetrahydrospiro[cyclopropane-1,3′-pyrido[1,2-a]pyrazine]-7′-carboxamide], under setting [1], the EC50 stood at 2.2 nM.

Turning to `CC(C)N1C[C@]2(C[C@@H](OCc3ccccc3)C2)n2cc(C(=O)NCc3ccc(F)cc3F)c(=O)c(O)c2C1=O` [Example S1, trans-3-(benzyloxy)-N-(2,4-difluorobenzyl)-9′-hydroxy-2′-isopropyl-1′,8-dioxo-1′,2′,3′,8′-tetrahydrospiro[cyclobutane-1,4′-pyrido[1,2-a]pyrazine]-7′-carboxamide hydrochloride], the EC50 under setting [4] was 7.7 nM.

As a reminder, the EC50 is the concentration giving half of the maximal effect.
